According to ChEMBL document CHEMBL1201862, “PubChem BioAssay data set” (2004):
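Where inhibition never reached the appropriate level, the endpoint shown equals the highest concentration tested. Otherwise, values were interpolated linearly from a five-concentration, 48-hour dose response in 96-well plates. At the GI50, growth is halved.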 Activity calls are given as the source filed them. Rule as the data show it: active = GI50 up to about 1.1 µM and inactive = higher.

Key:
Assay in all cases: NCI anticancer screen, dose series, 48 h
[1] = test system: ACHN
[2] = test system: MDA-MB-435
[3] = test system: NCI-H226
[4] = test system: NCI/ADR-RES
[5] = test system: UACC-257
[6] = test system: EKVX
[7] = test system: SK-MEL-5
[8] = test system: IGROV-1
[9] = test system: SNB-19
[10] = test system: T47D
[11] = test system: BT-549
[12] = test system: HCT-116
[13] = test system: HOP-62
[14] = test system: SK-MEL-2
[15] = test system: HOP-92
[16] = test system: DMS-114
[17] = test system: SW-620
[18] = test system: PC-3
[19] = test system: MDA-MB-231
[20] = test system: OVCAR-8

Compound | GI50 [1] | GI50 [2] | GI50 [3] | GI50 [4] | GI50 [5] | GI50 [6] | GI50 [7] | GI50 [8] | GI50 [9] | GI50 [10] | GI50 [11] | GI50 [12] | GI50 [13] | GI50 [14] | GI50 [15] | GI50 [16] | GI50 [17] | GI50 [18] | GI50 [19] | GI50 [20]
CCOc1ccc2c(ccc(/C=C/c3cc(C)c4cccnc4c3O)[n+]2C)c1 | 1.4 µM (inactive) | 0.929 µM (active) | 0.859 µM (active) | 41.6 µM (inactive) | 0.933 µM (active) | 0.925 µM (active) | 0.627 µM (active) | 0.675 µM (active) | 0.594 µM (active) | 0.54 µM (active) | 1.52 µM (inactive) | 0.317 µM (active) | 1.14 µM (inactive) | 0.498 µM (active) | 0.881 µM (active) | 0.301 µM (active) | 0.459 µM (active) | 0.773 µM (active) | 0.157 µM (active) | 0.301 µM (active)
CC(CCC=O)CCOCc1ccccc1 (stereo not drawn) | > 100 µM (inactive) | > 100 µM (inactive) | > 100 µM (inactive) | > 100 µM (inactive) | 36.5 µM (inactive) | > 100 µM (inactive) | 37.4 µM (inactive) | > 100 µM (inactive) | > 100 µM (inactive) | > 100 µM (inactive) | > 100 µM (inactive) | > 95.9 µM (inactive) | > 100 µM (inactive) | > 100 µM (inactive) | > 100 µM (inactive) | 61.2 µM (inactive) | > 80.7 µM (inactive) | > 100 µM (inactive) | 56.6 µM (inactive) | 98.4 µM (inactive)
O=C1C2=C(c3ccccc31)C(c1ccccc1)N1C(=O)CSC1=N2 (stereo not drawn) | > 79.4 µM (inactive) | 17.4 µM (inactive) | 38.5 µM (inactive) | 24 µM (inactive) | > 86.5 µM (inactive) | > 55.7 µM (inactive) | 36.9 µM (inactive) | > 57.4 µM (inactive) | 55.7 µM (inactive) | 29.6 µM (inactive) | 24.5 µM (inactive) | > 56.4 µM (inactive) | 83.8 µM (inactive) | 49 µM (inactive) | 32.6 µM (inactive) | 43.1 µM (inactive) | 50.8 µM (inactive) | 34.4 µM (inactive) | 44.8 µM (inactive) | > 71.8 µM (inactive)
CC(=O)O[C@H]1C(=O)O[C@@H]2C[C@H]3C(C)=CC(=O)[C@@H](O)[C@]3(C)[C@H]3[C@@]4(O)OC[C@]32[C@@H]1[C@@H](C)[C@H]4O | 0.0317 µM (active) | 0.0214 µM (active) |  | 2.21 µM (inactive) | 0.0395 µM (active) | 0.0453 µM (active) | 0.0247 µM (active) | 0.0279 µM (active) |  | 0.0228 µM (active) | 0.0312 µM (active) | 0.0234 µM (active) | 0.0498 µM (active) | 0.0611 µM (active) | 0.0329 µM (active) | 0.0253 µM (active) | 0.0527 µM (active) | 0.02 µM (active) | 0.0475 µM (active) | 0.0444 µM (active)
